In patent EP0075139A1 (priority 1981, dated 1983):

Legend:
Phytophthora infestans = format: in vivo; conditions: 0,025 %ige Spritzbrühe; potted tomato "Große Fleischtomate"; assessed 5 days after infection; value given as 'beispielsweise' (for example)
Plasmopara viticola = experiment: Efficacy against Plasmopara viticola on potted vine leaves (protective spray, greenhouse); format: in vivo; conditions: 0,025 %ige Spritzbrühe; potted vines "Müller-Thurgau"; infected 10 days after spraying; value given as 'beispielsweise' (for example)
Source text: Wirksamkeit gegen Plasmopara viticola
Blätter von Topfreben der Sorte "Müller-Thurgau" werden mit wäßriger Spritzbrühe, die 80 % Wirkstoff und 20 % Emulgiermittel in der Trockensubstanz enthält, besprüht. Um die Wirkungsdauer der Wirkstoffe beurteilen zu können, werden die Pflanzen nach dem Antrocknen des Spritzbelages 10 Tage im Gewächshaus aufgestellt. Erst dann werden die Blätter mit einer Zoosporenaufschwemmung von Plasmopara viticola (Rebenperonospora) infiziert. Danach werden die Reben zunächst für 16 Stunden in einer wasserdampfgesättigten Kammer bei 24°C und anschließend für 8 Tage in einem Gewächshaus mit Temperaturen zwischen 20 und 30 C aufgestellt. Nach dieser Zeit werden die Pflanzen zur Beschleunigung des Sporangienträgerausbruchs abermals für 16 Stunden in der feuchten Kammer aufgestellt. Dann erfolgt die Beurteilung des Ausmaßes des Pilzausbruches auf den Blattunterseiten.
Das Ergebnis des Versuches zeigt, daß beispielsweise die Verbindungen Nr. 1, 2, 11 und 12 bei Anwendung als 0,025 %ige Spritzbrühe eine bessere fungizide Wirkung (beispielsweise 100 %) zeigen als der bekannte Wirkstoff A (beispielsweise 90 %).

Row | SMILES | fungizide Wirkung (Phytophthora infestans) [%] | fungizide Wirkung (Plasmopara viticola) [%]
1 | S=C([S-])NCCNC(=S)[S-].[Zn+2] [Verbindung C, Zink-ethylen-1,2-bis-dithiocarbamat] | 70 | –
2 | O=C1C2CC=CCC2C(=O)N1SC(Cl)(Cl)Cl (stereo not drawn) [Verbindung B, N-Trichlormethylthio-tetrahydrophthalimid] | 70 | –
3 | COC(=O)C(C)N(C(=O)C(C)=NOCc1c(Cl)cccc1Cl)c1c(C)cccc1C (stereo not drawn) [Verbindung Nr. 22, N-(2,6-Dimethyl-phenyl)-N-[(1-methoxycarbonyl)-1-ethyl]-2-[O-(2,6-dichlor-benzyl)-oximino]-brenztraubensäure-amid] | 90 | –
4 | O=C1c2ccccc2C(=O)N1SC(Cl)(Cl)Cl [Verbindung A, N-Trichlormethylthio-phthalimid] | – | 90
5 | CC(=O)C(=O)N(c1c(C)ccc2ccccc12)C1CCOC1=O (stereo not drawn) [Verbindung Nr. 1, N-(2-Methyl-1-naphthyl)-N-(alpha-butyro--gamma-lactonyl)-brenztraubensäure-amid] | 90 | 100
